Laboratory results published in US20230085307A1, “PYRIDAZINONE COMPOUND AND HERBICIDE” (NISSAN CHEMICAL CORPORATION, priority 2019, published 2023).

Tests used:
wild oat [1] = assay: Test Example 4: herbicidal effect by soil treatment (Table 19, symbol I); type: in vivo, wild oat (Avena fatua); details: amount of applied herbicide 320 g/ha
How it was run: (§1)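 Scoring uses the grading scale of an earlier test, three weeks post-application. Treatment consists of spraying a diluted emulsion formulation across the surface of sterilized diluvial soil in which seeds are buried near 1.5 cm deep; boxes are kept in a greenhouse between 25° C. and 30° C.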

wild oat [2] = assay: Test Example 5: herbicidal effect by foliage application, plastic box (Table 20, symbol I); type: in vivo, wild oat (Avena fatua); details: foliage application, 320 g/ha, three weeks after application
How it was run: (§2)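 Post-emergence foliar test in sterilized diluvial soil. Compound applied as water-diluted emulsion at a predetermined rate to 14-day-old plants; evaluation at three weeks.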

redroot pigweed [3] = assay: Test Example 5: herbicidal effect by foliage application, plastic box (Table 20, symbol N); type: in vivo, redroot pigweed (Amaranthus retroflexus); details: foliage application, 320 g/ha, three weeks after application
How it was run: as §2

barnyard grass [4] = assay: Test Example 5: herbicidal effect by foliage application, plastic box (Table 20, symbol H); type: in vivo, barnyard grass (Echinochloa crus-galli); details: foliage application, 320 g/ha, three weeks after application
How it was run: as §2

southern crabgrass = assay: Test Example 4: herbicidal effect by soil treatment (Table 19, symbol F); type: in vivo, southern crabgrass (Digitaria ciliaris); details: amount of applied herbicide 320 g/ha
How it was run: as §1

oval-leafed pondweed = assay: Test Example 1: herbicidal activity, application before weed generation under submerged conditions (Table 16, symbol C); type: in vivo, oval-leafed pondweed (Monochoria vaginalis); details: amount of applied herbicide 320 g/ha
How it was run: (§3)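 Emulsion formulation, water-diluted to set dose, was put onto the flooded surface (4 cm depth, alluvial soil) the same day weeds were sown and 2.5-leaf rice transplanted. After 3 weeks at 25-30 °C under glass, each species was rated 0 (≤5% kill) to 5 (≥90% kill).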

velvetleaf [5] = assay: Test Example 5: herbicidal effect by foliage application, plastic box (Table 20, symbol M); type: in vivo, velvetleaf (Abutilon theophrasti); details: foliage application, 320 g/ha, three weeks after application
How it was run: as §2

redroot pigweed [6] = assay: Test Example 4: herbicidal effect by soil treatment (Table 19, symbol N); type: in vivo, redroot pigweed (Amaranthus retroflexus); details: amount of applied herbicide 320 g/ha
How it was run: as §1

blackgrass [7] = assay: Test Example 4: herbicidal effect by soil treatment (Table 19, symbol J); type: in vivo, blackgrass (Alopecurus myosuroides); details: amount of applied herbicide 320 g/ha
How it was run: as §1

blackgrass [8] = assay: Test Example 5: herbicidal effect by foliage application, plastic box (Table 20, symbol J); type: in vivo, blackgrass (Alopecurus myosuroides); details: foliage application, 320 g/ha, three weeks after application
How it was run: as §2

velvetleaf [9] = assay: Test Example 4: herbicidal effect by soil treatment (Table 19, symbol M); type: in vivo, velvetleaf (Abutilon theophrasti); details: amount of applied herbicide 320 g/ha
How it was run: as §1

Chinese sprangletop = assay: Test Example 3: herbicidal effect by foliage application, Wagner pot (Table 18, symbol D); type: in vivo, chinese sprangletop (Leptochloa chinensis); details: 320 g/ha
How it was run: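 Plants were sown in alluvial soil held under 0.1–0.5 cm standing water and grown 14 days in a greenhouse at 25–30 °C. An emulsifiable formulation, water-diluted to the set dose, was then sprayed onto the foliage, and effects were scored three weeks later using previously defined criteria.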

lambsquarters = assay: Test Example 4: herbicidal effect by soil treatment (Table 19, symbol O); type: in vivo, lambsquarters (Chenopodium album); details: amount of applied herbicide 320 g/ha
How it was run: as §1

Japanese bulrush = assay: Test Example 1: herbicidal activity, application before weed generation under submerged conditions (Table 16, symbol B); type: in vivo, Japanese bulrush (Schoenoplectus juncoides); details: amount of applied herbicide 320 g/ha
How it was run: as §3

chickweed = assay: Test Example 5: herbicidal effect by foliage application, plastic box (Table 20, symbol P); type: in vivo, common chickweed (Stellaria media); details: foliage application, 320 g/ha, three weeks after application
How it was run: as §2

barnyard grass [10] = assay: Test Example 4: herbicidal effect by soil treatment (Table 19, symbol H); type: in vivo, barnyard grass (Echinochloa crus-galli); details: amount of applied herbicide 320 g/ha
How it was run: as §1

SMILES | I: wild oat, herbicidal effect grade (wild oat [1]) | I: wild oat, herbicidal effect grade (wild oat [2]) | N: redroot pigweed, herbicidal effect grade (redroot pigweed [3]) | H: barnyard grass, herbicidal effect grade (barnyard grass [4]) | F: southern crabgrass, herbicidal effect grade (southern crabgrass) | Herbicidal effect, C: oval-leafed pondweed (oval-leafed pondweed) | M: velvetleaf, herbicidal effect grade (velvetleaf [5]) | N: redroot pigweed, herbicidal effect grade (redroot pigweed [6]) | J: blackgrass, herbicidal effect grade (blackgrass [7]) | J: blackgrass, herbicidal effect grade (blackgrass [8]) | M: velvetleaf, herbicidal effect grade (velvetleaf [9]) | herbicidal effect on Chinese sprangletop (D) (Chinese sprangletop) | O: lambsquarters, herbicidal effect grade (lambsquarters) | Herbicidal effect, B: Japanese bulrush (Japanese bulrush) | P: chickweed, herbicidal effect grade (chickweed) | H: barnyard grass, herbicidal effect grade (barnyard grass [10])
CCCC(=O)Oc1c(C)nn(C)c(=O)c1-c1c(-c2ccc(Cl)cc2)sc2cc(Cl)ccc12 [3-034] | 0 (Herbicidal rate of 5% or less (almost no effect)) | 3 (Herbicidal rate of 40% or more and less than 70%) | 4 (Herbicidal rate of 70% or more and less than 90%) | 3 (Herbicidal rate of 40% or more and less than 70%) | 0 (Herbicidal rate of 5% or less (almost no effect)) | 3 (Herbicidal rate of 40% or more and less than 70%) | 4 (Herbicidal rate of 70% or more and less than 90%) | 3 (Herbicidal rate of 40% or more and less than 70%) | 0 (Herbicidal rate of 5% or less (almost no effect)) | 4 (Herbicidal rate of 70% or more and less than 90%) | 3 (Herbicidal rate of 40% or more and less than 70%) | 4 (Herbicidal rate of 70% or more and less than 90%) | 0 (Herbicidal rate of 5% or less (almost no effect)) | 3 (Herbicidal rate of 40% or more and less than 70%) | 5 (Herbicidal rate of 90% or more (almost completely withered)) | 0 (Herbicidal rate of 5% or less (almost no effect))
CCOc1ccccc1-c1sc2cc(Cl)ccc2c1-c1c(O)c(C)nn(C)c1=O [3-039] | 0 (Herbicidal rate of 5% or less (almost no effect)) | 1 (Herbicidal rate of 5% or more and less than 20%) | 4 (Herbicidal rate of 70% or more and less than 90%) | 5 (Herbicidal rate of 90% or more (almost completely withered)) | 5 (Herbicidal rate of 90% or more (almost completely withered)) | 0 (Herbicidal rate of 5% or less (almost no effect)) | 5 (Herbicidal rate of 90% or more (almost completely withered)) | 4 (Herbicidal rate of 70% or more and less than 90%) | 0 (Herbicidal rate of 5% or less (almost no effect)) | 4 (Herbicidal rate of 70% or more and less than 90%) | 3 (Herbicidal rate of 40% or more and less than 70%) | 3 (Herbicidal rate of 40% or more and less than 70%) | 3 (Herbicidal rate of 40% or more and less than 70%) | 1 (Herbicidal rate of 5% or more and less than 20%) | 5 (Herbicidal rate of 90% or more (almost completely withered)) | 4 (Herbicidal rate of 70% or more and less than 90%)
